The values that follow come from PMC2741501 (Molecular cell, 2009).

Like-named read-outs stand apart in the source and are kept apart here.

Data set [1] addresses T1, CviR (Chromobacterium violaceum, UniProt D3W065). It is filed as cell-based. The conditions noted are these: read-out: IC50, inhibition of CviR-dependent vioA-gfp expression; constant 500 nM C6-HSL.
Another data set has as its target V. harveyi LuxN (Vibrio campbellii, UniProt A7MRY4). It is filed as cell-based. As to conditions: read-out: IC50, inhibition of bioluminescence.
The test system of data set [2] is CviR binding to the vioA promoter. Details: species or system Chromobacterium violaceum. The conditions noted are these: for DNA binding of purified CviR loaded with the molecule: vioA promoter probe, CviR 100-500 nM.
In data set [3] the test system is CviR. The conditions noted are these: molecule added at 50 μM, E. coli.
Data set [4] has as its target T1, CviR. As to conditions: for induction of gfp expression through CviR: even at 100 μM; for maximal gfp expression level compared with C6-HSL / EC50: E. coli vioA-gfp; for EC50: read-out: EC50, CviR activation of gfp expression.
Data set [5] concerns C. violaceum killing of C. elegans. As to the kind of experiment: C. elegans lifespan assay on C. violaceum lawns. It is filed as in vivo, Caenorhabditis elegans.
The mark [6] stands for this setting: V. harveyi BB960 (luxPQ mutant).

T1 sequence (D3W065 1-265): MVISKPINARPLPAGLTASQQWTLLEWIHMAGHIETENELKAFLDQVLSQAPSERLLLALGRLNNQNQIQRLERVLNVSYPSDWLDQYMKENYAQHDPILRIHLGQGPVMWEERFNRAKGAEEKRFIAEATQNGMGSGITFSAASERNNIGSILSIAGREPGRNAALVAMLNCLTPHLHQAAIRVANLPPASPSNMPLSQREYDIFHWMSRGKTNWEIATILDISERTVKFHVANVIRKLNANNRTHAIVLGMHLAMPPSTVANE
V. harveyi LuxN, sequence (A7MRY4 whole entry): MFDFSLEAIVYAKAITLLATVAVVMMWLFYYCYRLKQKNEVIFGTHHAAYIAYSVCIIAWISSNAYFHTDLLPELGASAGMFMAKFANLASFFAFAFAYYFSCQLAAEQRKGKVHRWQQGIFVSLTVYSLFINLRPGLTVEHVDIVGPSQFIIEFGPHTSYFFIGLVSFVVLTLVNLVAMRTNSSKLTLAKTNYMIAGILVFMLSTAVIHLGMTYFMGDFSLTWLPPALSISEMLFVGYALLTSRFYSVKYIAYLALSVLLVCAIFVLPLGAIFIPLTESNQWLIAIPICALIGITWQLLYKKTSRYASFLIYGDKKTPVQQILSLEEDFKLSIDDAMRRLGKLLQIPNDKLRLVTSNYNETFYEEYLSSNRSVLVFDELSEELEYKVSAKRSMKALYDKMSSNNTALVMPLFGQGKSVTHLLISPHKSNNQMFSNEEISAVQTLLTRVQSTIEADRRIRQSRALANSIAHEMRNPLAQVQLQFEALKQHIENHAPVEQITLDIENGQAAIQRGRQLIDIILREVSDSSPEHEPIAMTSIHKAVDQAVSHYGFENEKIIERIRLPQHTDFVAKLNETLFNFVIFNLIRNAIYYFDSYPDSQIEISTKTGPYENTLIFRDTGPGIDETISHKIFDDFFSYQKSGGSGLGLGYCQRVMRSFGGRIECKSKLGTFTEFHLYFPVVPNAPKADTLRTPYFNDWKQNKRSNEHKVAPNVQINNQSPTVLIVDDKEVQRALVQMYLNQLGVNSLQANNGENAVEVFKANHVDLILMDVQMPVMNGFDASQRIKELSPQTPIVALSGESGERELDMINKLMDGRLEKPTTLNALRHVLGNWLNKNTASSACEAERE

The term IC50 denotes the point on the concentration scale where inhibition reaches its midpoint. With Chloro-thiolactone [CTL], the IC50 at CviR [1] amounted to 1100 nM; on V. harveyi LuxN (setting [6]), 28000 nM; on V. harveyi LuxN (wild type V. harveyi BB120), 150000 nM. For the same molecule, the “DNA binding of purified CviR loaded with the molecule” value (shortened to “DNA binding of purified CviR loaded”) in data set [2] is given as “no ability to bind DNA”. Moreover, in the data set with CviR [3], the “CviR folding and solubility when expressed in presence of molecule” value is “promoted CviR folding and solubility”.

Regarding `CCCCCCCCCCCC(=O)N[C@H]1CCOC1=O` [C12-HSL], the IC50 at CviR [1] was found to be 494 nM. Further, the “induction of gfp expression through CviR” value on CviR [4] is reported as “do not induce gfp expression”. The “DNA binding of purified CviR loaded” value in data set [2] is given as “no ability to bind DNA”.

Consider `CCCCCCCCCC(=O)N[C@H]1CCOC1=O` [C10-HSL], for which the IC50 on CviR [1] turned out to be 208 nM. In addition, the “induction of gfp expression through CviR” value at CviR [4] was “do not induce gfp expression”. Besides, the “DNA binding of purified CviR loaded” value in data set [2] is given as “does not abolish DNA binding”.

A word on the EC50: it is the concentration that produces a half-maximal response. Take `CCCC(=O)N[C@H]1CCOC1=O` [C4-HSL]: at CviR [4], the “maximal gfp expression level compared with C6-HSL” value is on record as “can induce maximal gfp expression” and the EC50 is 12000 nM.

On to `CCCCCCCC(=O)N[C@H]1CCOC1=O` [C8-HSL], for which, on CviR [4], the “maximal gfp expression level compared with C6-HSL” value is “only half of the maximal gfp expression” and the EC50 came to 30 nM. Further, the “DNA binding of purified CviR loaded” value in data set [2] is reported as “bound DNA with similar affinity to CviR loaded with C6-HSL”.

Consider `CCCCCCCCCCCCCC(=O)N[C@H]1CCOC1=O` [C14-HSL], for which, at CviR [1], the IC50 came out at 268 nM. Also, the “induction of gfp expression through CviR” value on CviR [4] is listed as “do not induce gfp expression”. Besides, the “DNA binding of purified CviR loaded” value in data set [2] was “no ability to bind DNA”.

Consider Chlorolactone [CL], for which the IC50 at CviR [1] stood at 377 nM; on V. harveyi LuxN (setting [6]), 14000 nM; at V. harveyi LuxN (V. harveyi JMH624 + 20 nM AHL), 873 nM; on V. harveyi LuxN (wild type V. harveyi BB120), 40000 nM. Also, the “C. elegans median lifespan” value in data set [5] (wild type C. violaceum, CL 20 μM, two days without antagonist) is recorded as “seven”. Also, in data set [2] (500 nM CviR, antagonist 0-10 μM), the “DNA binding of C6-HSL loaded CviR on addition of antagonist” value was “DNA binding decreased in a dose dependent manner”. The “DNA binding of purified CviR loaded” value in data set [2] is recorded as “no ability to bind DNA”. In addition, the “CviR folding and solubility when expressed in presence of molecule” value with CviR [3] is “promoted CviR folding and solubility”.

In the case of `CCCCCC(=O)N[C@H]1CCOC1=O` [C6-HSL], the EC50 at CviR [4] is 75 nM. Further, the “C. elegans median lifespan” value in data set [5] (C. violaceum cviI mutant, C6-HSL 2 μM) is on record as 4 days. In data set [2] (500 nM CviR, 1 μM C6-HSL), the “DNA probe shift of CL loaded CviR on addition of C6-HSL” value is given as “modest shift of the DNA probe”. In data set [2], the “DNA binding of purified CviR loaded” value is “binds DNA with high affinity”.
